# From paper PMC2912408 (Biochemistry, 2010)
# Molecular target: T1, rat I7 olfactory receptor (OR-I7) (Rattus norvegicus, UniProt P23270)
# T1 sequence (P23270 1-327): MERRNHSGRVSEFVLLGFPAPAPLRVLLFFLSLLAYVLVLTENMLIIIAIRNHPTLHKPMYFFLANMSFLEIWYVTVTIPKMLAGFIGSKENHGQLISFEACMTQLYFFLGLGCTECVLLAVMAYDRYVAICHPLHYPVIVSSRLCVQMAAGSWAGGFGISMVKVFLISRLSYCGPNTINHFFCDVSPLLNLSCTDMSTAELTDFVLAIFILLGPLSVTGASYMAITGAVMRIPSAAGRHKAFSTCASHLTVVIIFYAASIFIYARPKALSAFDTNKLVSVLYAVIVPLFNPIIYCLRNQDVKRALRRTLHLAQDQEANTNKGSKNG
# Type: cell-based
row,EC50,SMILES
1,16 ± 1.7 µM,CCCCCCCCCC=O [decanal]
2,446 ± 16 µM,CCCCCCCCCCC=O [undecanal]
3,4.4 ± 0.4 µM,CCCCCCCCC=O [nonanal]
